Results: paper PMC3173295, “Biochemical characterization of trans-sialidase TS1 variants from Trypanosoma congolense” (BMC Biochemistry, 2011)

Columns and labels:
Assay type in all cases: biochemical, Trypanosoma congolense
[1] = test system: T1, T. congolense TS1b; experiment: HPAEC-PAD quantification of […]'Sia-Gal-MU, Michaelis-Menten fit; conditions: acceptor substrate; donor 50 nmol 3'SL in 50 μL (Figure 7 legend; text b29 says fetuin, 600 μM bound Sia); 37°C, 30 min; read-out: Acceptor substrates / Gal-MU / KM
T1 construct: residues 17-732 without signal peptide and GPI anchor region; C-terminal 3C site, SNAP and Strep tags; secreted from CHO Lec1 cells; 120 kDa with tags

[2] = test system: T2, T. congolense TS1 e-1; experiment: as above; conditions: acceptor substrate; donor 50 nmol 3'SL in 50 μL (Figure 7 legend; text b29 says fetuin, 600 μM bound Sia); 37°C, 30 min; read-out: Acceptor substrates / Gal-MU / KM
T2 construct: residues 17-732 without signal peptide and GPI anchor region; C-terminal 3C site, SNAP and Strep tags; secreted from CHO Lec1 cells; 120 kDa with tags

[3] = test system: T1, T. congolense TS1b; experiment: HPAEC-PAD quantification of […]'-sialyllactose, Michaelis-Menten fit; conditions: acceptor substrate; donor fetuin (600 μM bound Sia); pH 7.4-7.5, 37°C, 30 min; read-out: Acceptor substrates / Lactose / KM
[4] = test system: T2, T. congolense TS1 e-1; experiment: as above; conditions: acceptor substrate; donor fetuin (600 μM bound Sia); pH 7.4-7.5, 37°C, 30 min; read-out: Acceptor substrates / Lactose / KM

Row | Compound | Km [1] [µM] | Km [2] [µM] | Km [3] [µM] | Km [4] [µM]
1 | Cc1cc(=O)oc2cc(O[C@@H]3O[C@H](CO)[C@H](O)[C@H](O)[C@H]3O)ccc12 [Gal-MU, 4-methylumbelliferyl ß-D-galactoside] | 57 ± 14 | 74 ± 17 |  | 
2 | OC[C@H]1O[C@@H](O[C@H]2[C@H](O)[C@@H](O)C(O)O[C@@H]2CO)[C@H](O)[C@@H](O)[C@H]1O (stereo partly shown) [lactose] |  |  | 1680 ± 101 | 727 ± 48
